{
  "source": "patent US7632814B2",
  "about": "“HYD1 peptides as anti-cancer agents” (University of South Florida, priority 2006, dated 2009)",
  "key": {"prostate tumor cell": {"tested_on": "prostate tumor cell", "assay": "Cell adhesion supported by immobilized HYD1 fragments and variants", "type": "cell-based", "conditions": "truncation and alanine substitution of HYD1", "excerpt": "Defining the minimal region of HYD1 necessary to potentiate drug-induced apoptosis in suspension and adherent cultures is of interest. Below is a study to determine the minimal HYD1 sequence required to block prostate tumor cell migration. Similar studies as those outlined below and using the same peptide sequences will be used to determine the minimal amino acid sequence required for potentiation of drug induced apoptosis.\nTo determine the minimal element of immobilized HYD1 required for cell adhesion, the N and C terminus was systematically truncated one amino acid at a time (FIG. 14A). Most of the adhesion activity was retained with the deletion of lys-glycine from the C-terminus. However, the peptide no longer supported cell adhesion if the next residue, tryptophan was removed. Deletion of the N-terminus on the other hand, was tolerated very well until the third residue, methionine, was removed, leading to gradual decrease in cell binding."}, "[1]": {"tested_on": "phospho Pyk2 in H929 cells", "assay": "Phospho-Pyk2 levels in suspension culture (immunoblot)", "type": "cell-based", "conditions": "H929 cells cultured in suspension", "excerpt": "Based upon the observation that HYD1 increased melphalan induced apoptosis in suspension cultures, whether treatment with HYD1 inhibits phosphorylation of a downstream mediator of β1 integrin signaling (Pyk2) in suspension cultures was investigated."}, "8226 cells": {"tested_on": "8226 cells", "assay": "HS-5 co-culture (SF+A) model of drug resistance, melphalan apoptosis", "type": "cell-based", "conditions": "8226 cells co-cultured with HS-5, 50 μg/ml peptide, with melphalan", "protocol": "(§1) Co-culture model. HS-5/GFP cells were plated at a density of 500,000 cells per ml and incubated overnight. Myeloma cells were incubated with vehicle control (water), 50 μg/ml HYD1 or 50 μg/ml HYD1S 30 minutes prior to the addition of myeloma cells (400,000 cell/ml) to either control plates or plates containing HS-5 cells. Myeloma cells were incubated with HS-5 cells for three hours prior to the addition of melphalan. Apoptotic cells were measured in GFP negative myeloma cells, by annexin PE staining and FACS analysis (n=9). ANOVO was performed to determine significance between conditions.\n(§2) Briefly, 8226 myeloma cells were pre-incubated with varying concentrations of either HYD1 or the scrambled HYD1S peptide for 30 minutes prior to allowing cells to attach to FN for two hours. Following two hours of cell adhesion, the amount of cells adherent to FN was measured. The next objective was to determine whether treatment of tumor cells with HYD1 results in potentiation of melphalan induced cell death in the BMS co-culture model (SF+A). […] For these studies, the HYD1 and HYD1S were pre-incubated with the […] for 30 minutes, and then cells and culture media containing the peptide were placed into the S-5 culture dish. Myeloma cells were co-cultured for an additional 3 hours with HS-5 cells before the addition of melphalan. Twenty-four hours after drug treatment, apoptosis was measured by Annexin V-PE positive events by FACS analysis. The HS-5 cells constitutively express GFP and thus it is possible to gate GFP negative cells only (myeloma cells) for the apoptotic analysis."}, "H929 cells [2]": {"tested_on": "H929 cells", "assay": "HS-5 co-culture (SF+A) model of drug resistance, melphalan apoptosis", "type": "cell-based", "conditions": "H929 cells co-cultured with HS-5, 50 μg/ml peptide, with melphalan", "protocol": "as §1, §2"}, "H929 cells [3]": {"tested_on": "H929 cells", "assay": "Electron microscopy of double membrane vesicles", "type": "cell-based", "conditions": "100 μg/ml, 4 hours", "protocol": "H929 cells were treated with either 100 µg/ml HYD1 (FIG. 24A) or HYD1S (FIG. 24B) for four hours and processed for electron microscopy as described in materials and methods.\nElectron Microscopy. H929 cells were treated for four hours with either 100 μg/ml HYD1 or HYD1S. After peptide treatment, the samples were fixed overnight in 2.5% glutaraldehyde in 0.1M phosphate buffer, pH 7.2 overnight at four degrees. Following fixation, the cells were rinsed 2 times for 10 minutes each in 0.1M phosphate buffer, pH 7.2, at 4° C. The cells were loosely pelleted in microcentrifuge tubes at 500×G for 3 minutes. The buffer was removed from the cells and replaced with 1% osmium tetroxide in the above buffer at 4° C. The cells were resuspended and post-fixed for 1 hour, then loosely pelleted and rinsed in the above buffer. This step was repeated for a total of 3 rinses of 5 minutes each, with the cells being resuspended after each buffer change. Cells were dehydrated through a graded series of acetone, 30%, 50%, 70%, and 95% acetone in water, 5 minutes per change with loose pelleting at 750×G for 5 minutes, then resuspension for each step. The cells were then dehydrated through three changes of 100% acetone, 10 minutes per change, with a 5 minute pelleting step at 1000×G, followed by resuspension in each step. […]"}, "[4]": {"tested_on": "DU145 prostate cancer cells", "conditions": "DeRoock et al. 2001; cited from earlier work"}, "H929 cells [5]": {"tested_on": "H929 cells", "assay": "Lysosensor staining of acidic vesicles, confocal microscopy", "type": "cell-based", "conditions": "100 μg/ml, six hours, compared to control cells", "protocol": "Lysosensor green was used to detect acidic compartments and live cell imaging was performed by confocal microscopy. Shown is a representative figure. The experiment was repeated three independent times and similar results were obtained.\nLysosensor staining. 35 mm glass bottom microwell dishes were incubated with 10 ul Cell-tak (BD biosciences San Jose, Calif.) and 290 ul 0.5M sodium bicarbonate (Sigma) for 30 minutes. The plates were aspirated and 200,000H929 or 8226 cells were plated. Cells were then treated with either water (VC), 100 μg/ml HYD1 or 100 μg/ml HYD1S for 6 hours. After the 6-hour incubation, the plates were aspirated and washed once with warm media. Media containing 1 μM lysosensor DND-189 (Molecular Probes, Carlsbad Calif.) and 20 μM Hoechst 33342 (Molecular Probes) was added and samples were incubated for an additional 30 minutes. Samples were analyzed with a Leica DMI6000 inverted TCS SP5 confocal scanner (Leica Microsystems, Germany). 405 Diode and Argon laser lines were applied to excite the samples and tunable filters were used to minimize the crosstalk between fluorochromes. Gain, offset, and pinhole setting were identical for all samples within the treatment group. Image sections at […] were captured with photomultiplier detectors and maximum projections were prepared with the LAS AF software version 1.6.0 build 1016 (Leica Microsystems, Germany)."}, "β1 integrin": {"biological_target": "T1, β1 integrin (Homo sapiens, UniProt P05556)", "T1 construct": "endogenous in cells", "T1 sequence (P05556 21-798)": "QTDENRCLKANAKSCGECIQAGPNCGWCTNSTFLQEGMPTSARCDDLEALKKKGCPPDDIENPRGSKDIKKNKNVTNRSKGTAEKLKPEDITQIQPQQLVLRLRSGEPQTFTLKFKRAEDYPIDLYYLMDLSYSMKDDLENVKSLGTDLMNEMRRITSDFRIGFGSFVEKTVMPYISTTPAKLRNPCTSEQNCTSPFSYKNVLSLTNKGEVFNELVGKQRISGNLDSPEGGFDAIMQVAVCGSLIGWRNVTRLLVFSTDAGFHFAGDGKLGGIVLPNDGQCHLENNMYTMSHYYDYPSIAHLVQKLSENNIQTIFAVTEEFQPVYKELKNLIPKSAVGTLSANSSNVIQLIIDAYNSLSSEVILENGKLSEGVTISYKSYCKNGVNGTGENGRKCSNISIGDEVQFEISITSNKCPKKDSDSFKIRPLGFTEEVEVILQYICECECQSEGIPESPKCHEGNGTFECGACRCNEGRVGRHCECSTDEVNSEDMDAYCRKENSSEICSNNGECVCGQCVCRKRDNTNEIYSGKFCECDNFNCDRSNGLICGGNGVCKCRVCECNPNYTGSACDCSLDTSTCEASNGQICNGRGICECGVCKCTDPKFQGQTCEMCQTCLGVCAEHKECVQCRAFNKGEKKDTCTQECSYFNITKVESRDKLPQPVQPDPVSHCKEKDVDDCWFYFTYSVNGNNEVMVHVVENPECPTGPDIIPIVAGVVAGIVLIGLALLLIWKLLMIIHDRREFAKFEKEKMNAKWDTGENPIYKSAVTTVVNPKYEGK", "assay": "Binding of peptide to the cell surface", "excerpt": "Another aspect of the invention concerns a method of identifying modulators of peptide binding (a screen for molecules that displace peptide binding). Agents that are identified as being capable of competing with the HYD1 peptides of the invention for binding to β1 integrin may have utility as cytotoxic agents for research or therapy (e.g., for cancer treatment). The method comprising providing a candidate agent (such as a chemical compound, antibody, nucleic acid, or peptide); and determining whether the agent inhibits (e.g., disrupts, prevents, or interferes with), the ability of a HYD1 peptide of the invention (HYD1 or a fragment or variant thereof) to bind to β1 integrin on a cell surface (e.g., cancer cell surface) and/or inhibit β1 integrin mediated adhesion, in vitro or in vivo (e.g., in an animal model). Preferably, the cell is a cancer cell such as a myeloma cell or a cell of other cancer types (see, for example Table 1). Preferably, the peptide is labeled with a detectable moiety (e.g., a fluorescent tag, such as […]) to facilitate the determining step. Examples of controls that may be utilized in carrying out the screening method include, but are not limited to, unlabeled HYD1 peptides (HYD1, or a fragment or variant thereof); scrambled peptides (such as HYD1S); β1 integrin blocking antibody; and non-specific surface antigen binding antibody (such as CD138 for myeloma cells). Advantageously, using the screening assay, labeled HYD1 or fragments or variants thereof, can be used to screen candidates such as small molecules, on natural product libraries, in a rapid, high-throughput fashion. […] Fluorescence polarization (FP) analysis can be used to screen small molecule or natural product libraries for discovery of novel compounds that mimic the specific binding and potentially the biological activity of HYD1. The FP assay is based on the extent of depolarization of the free versus bond peptide, which can be accurately measured on commercially available FP plate readers. […] In summary, a high throughput screen (HTS) can be used to bind small molecules prior to the addition of an HYD1 probe and molecules of interest can be identified by displacement of bond peptide, with a corresponding increase in unbound peptide by FP analysis. An analogous high-throughput binding assay based on fluorescence polarization, which allows screening for small molecules that bind to the STAT3 SH2 domain, is described in Schust J. and Berg T., Anal Biochem., 2004 Jul. 1; 330(1):114-8. […]"}, "Myeloma cells": {"tested_on": "Myeloma cells", "assay": "Apoptotic activity of HYD1 variants in myeloma cells (cell line not stated)", "type": "cell-based", "protocol": "Myeloma cells were plated at a density of 400,000 cells per ml in a 24 well plate. Cells were treated with the indicated dose of the peptide for 24 hours. Following 24 hrs of peptide exposure, apoptotic cells were detected using Annexin V staining and FACS analysis. Ten thousand events were analyzed by flow cytometry (Becton Dickinson, San Jose, Calif.). Experiments were performed in triplicate and repeated twice. Shown is a representative figure."}},
  "note": "Where no end group is shown, it is not given here. [ ]: non-standard residue; d: D form. 5(6)‑FAM = 5(6)-carboxyfluorescein",
  "data": [
    {"substance": "ikmvisw (IKMVISW; HYD1 fragment)", "values": [
      {"measurement": "cell adhesion supported by immobilized peptide", "setting": "prostate tumor cell", "result": "retained full cell adhesion activities"}
    ]},
    {"substance": "wiksmkivkg ([dW][dI][dK][dS][dM][dK][dI][dV][dK]G) [HYD1S, reference compound]", "values": [
      {"measurement": "phospho Pyk2 levels", "setting": "[1]", "result": "but not HYD1S reduces phospho Pyk2 levels"},
      {"measurement": "potentiation of melphalan-induced apoptosis in the SF+A model", "setting": "8226 cells", "result": "but not the scrambled peptide (HYD1S) potentiates melphalan-induced cell death"},
      {"measurement": "potentiation of melphalan-induced apoptosis in the SF+A model", "setting": "H929 cells [2]", "result": "but not the scrambled peptide (HYD1S) potentiates melphalan-induced cell death"},
      {"measurement": "formation of double membranes / vesicles (EM)", "setting": "H929 cells [3]", "result": "small vesicles fused with lysosomes were observed"},
      {"measurement": "inhibition of cell adhesion to extracellular matrixes", "setting": "[4]", "result": "not to inhibit cell adhesion"},
      {"measurement": "number and size of acidic vesicles", "setting": "H929 cells [5]", "result": "large vesicles noted with HYD1 treatment in both the lysosensor staining and EM analysis were not detected"}
    ]},
    {"substance": "FAM-HYD1: HYD1 with R=5(6)-FAM (carboxyfluorescein) ({5(6)‑FAM}-[dK][dI][dK][dM][dV][dI][dS][dW][dK]G)", "values": [
      {"measurement": "binding to the cell surface", "setting": "β1 integrin", "result": "binds to the cell surface"},
      {"measurement": "blocking of cell surface binding by β1 integrin antibody", "setting": "β1 integrin", "result": "can be blocked"},
      {"measurement": "biological activity of conjugated HYD1", "setting": "Myeloma cells", "result": "retains biological activity"}
    ]}
  ]
}
